Read-outs that look alike come from different tables or passages of the source.
Legend:
[1] = system: RNA Polymerase II Serine 5 phosphorylation (Rpb1 CTD, downstream substrate of CDK7) in A549 cells; assay: Imaging-based cellular RNA PolII Ser5 phosphorylation assay in A549 cells; format: cell-based, human; conditions: wild-type CDK7, RNA PolII Ser5 phosphorylation, averaged over all measurements; for IC50: Homo sapiens, A549, A549 cells, read-out: CDK7_A549 Wild-type CDK7 (pIC50) (converted); for CDK7_A549 Wild-type CDK7 (pIC50): A549 cells
How it was run: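 A549 cells, seeded 1000/well in DMEM with 1% FBS and cultured 20 h, were treated with compound for 3 h at 37 °C. Ser5-phospho-Rpb1 CTD detected by immunofluorescence imaging after fixation and methanol permeabilization; IC50 from curve fit normalized to DMSO and 10 μM reference-compound controls.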

[2] = biological target: CDK7/cyclinH/MAT1 trimeric complex (Homo sapiens, UniProt P50613); assay: In vitro CDK7 assay, potency of irreversible covalent inhibitors (kinact/KI), coupled PK/LDH ADP readout at 340 nm; conditions: for Ki: CDK7 (20 nM enz.) (KI, μM); for kinact: read-out: CDK7 (20 nM enz.) (kinact, s^−1), 20 nM enzyme
[3] = system: RNA Polymerase II Serine 5 phosphorylation in A549 cells overexpressing CDK7-mutant (C312S); assay: Imaging-based cellular RNA PolII Ser5 phosphorylation assay in A549 cells overexpressing CDK7-mutant (C312S); format: cell-based, human; conditions: RNA PolII Ser5 phosphorylation, averaged over all measurements; for IC50: Homo sapiens, A549, A549 cells overexpressing CDK7-mutant (C312S), read-out: CDK7_A549 mutant hCDK7(pIC50) (converted); for CDK7_A549 mutant hCDK7(pIC50): A549 cells overexpressing CDK7-mutant (C312S)
How it was run: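 A549 cells overexpressing CDK7 C312S (with endogenous wild-type CDK7) were treated with compound for 3 h at 37 °C in 1% FBS medium. Phospho-Rpb1 CTD Ser5 was immunostained after fixation and imaged. IC50 came from curve fit of % control, normalised to DMSO and 10 μM reference-compound controls.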

[4] = read-out: CDK7 (20 nM enz.) (kinact/KI, M^−1*s^−1), 20 nM enzyme
[5] = read-out: CDK7 (20 nM enz.) (kobs/[I], M^−1*s^−1), 20 nM enzyme

Chain of CDK7/cyclinH/MAT1 trimeric complex (P50613 whole entry): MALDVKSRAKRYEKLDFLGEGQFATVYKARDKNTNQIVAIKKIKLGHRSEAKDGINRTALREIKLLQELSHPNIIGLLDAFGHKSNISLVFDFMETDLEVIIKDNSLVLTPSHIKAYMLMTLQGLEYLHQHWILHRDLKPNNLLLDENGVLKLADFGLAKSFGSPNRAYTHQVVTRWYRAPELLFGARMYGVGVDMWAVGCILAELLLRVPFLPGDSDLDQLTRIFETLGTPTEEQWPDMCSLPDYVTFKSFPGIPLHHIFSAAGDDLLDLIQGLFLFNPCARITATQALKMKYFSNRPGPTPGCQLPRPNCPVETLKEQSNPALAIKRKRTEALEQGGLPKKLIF
Chain of CDK7/cyclinH/MAT1 trimeric complex (P51946 whole entry partner): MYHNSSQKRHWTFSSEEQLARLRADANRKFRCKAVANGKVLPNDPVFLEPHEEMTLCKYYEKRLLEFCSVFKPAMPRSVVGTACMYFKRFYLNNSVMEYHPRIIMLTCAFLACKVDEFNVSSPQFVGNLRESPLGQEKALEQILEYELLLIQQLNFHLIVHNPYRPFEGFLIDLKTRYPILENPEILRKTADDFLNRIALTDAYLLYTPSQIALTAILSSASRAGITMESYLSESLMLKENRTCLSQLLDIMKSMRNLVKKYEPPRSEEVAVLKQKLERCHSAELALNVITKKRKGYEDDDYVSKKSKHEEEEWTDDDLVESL
Chain of CDK7/cyclinH/MAT1 trimeric complex (P51948 whole entry partner): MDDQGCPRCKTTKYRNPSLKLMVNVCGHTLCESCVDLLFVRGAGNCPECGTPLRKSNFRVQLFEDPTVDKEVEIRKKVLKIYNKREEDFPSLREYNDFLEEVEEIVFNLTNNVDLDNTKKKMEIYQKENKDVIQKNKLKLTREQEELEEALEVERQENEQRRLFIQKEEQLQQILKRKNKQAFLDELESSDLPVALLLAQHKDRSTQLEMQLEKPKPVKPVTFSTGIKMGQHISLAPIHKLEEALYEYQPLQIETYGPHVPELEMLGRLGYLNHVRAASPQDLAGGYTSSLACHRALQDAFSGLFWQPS

IC50 [1] [nM]	Ki ([2]; 20 nM enzyme) [µM]	kinact [2] [s⁻¹]	kinact/KI [2, 4] [M⁻¹ s⁻¹]	IC50 [3] [nM]	CDK7_A549 Wild-type CDK7 (pIC50) [1]	CDK7 (20 nM enz.) (kinact, s^−1) ([2]; 20 nM enzyme) [s⁻¹]	CDK7 (20 nM enz.) (kinact/KI, M^−1*s^−1) ([2]; 20 nM enzyme) [M⁻¹ s⁻¹]	CDK7_A549 mutant hCDK7(pIC50) [3]	kinact/KI [2, 5] [M⁻¹ s⁻¹]	CDK7 (20 nM enz.) (kobs/[I], M^−1*s^−1) ([2]; 20 nM enzyme) [M⁻¹ s⁻¹]	Compound
60.3	0.0291	5.06e-05	1740	~10000							C=CC(=O)N1CC[C@H](N2CC(c3cc(C)c4c(c3)Nc3nccc(-c5cnn(C)c5)c3CO4)C2)C1 (single isomer, unassigned) [Compound 361]
58.9	0.0325	6.59e-05	2030	10000							C=CC(=O)N1CC[C@@H](N2CC(c3cc(C)c4c(c3)Nc3nccc(-c5cnn(C)c5)c3CO4)C2)C1 (single isomer, unassigned) [Compound 362]
	0.0272				7.52	5.097e-05	1874.15	<5			C=CC(=O)N1CC[C@@H](N2CCC(c3cc4c(c(C)n3)OCc3c(N5CCOCC5)ccnc3N4)CC2)C1 (single isomer, unassigned) [Compound 363]
43.7	0.046	4.07e-05	885	> 10000							C=C(C(=O)N1CC[C@@H](N2CCC(c3cc4c(c(C)n3)OCc3c(-c5cnn(C)c5)ccnc3N4)CC2)C1)n1cccn1 (single isomer, unassigned) [Compound 365]
	0.112	2.32e-05		> 10000	7.19		206.483				CC#CC(=O)N1CC(N2CCC(c3cc4c(c(C)n3)O[C@H](C)c3c(N5CCOCC5)ccnc3N4)CC2)C1 (single isomer, unassigned) [Compound 370]
70.8	0.0621	3.74e-05	603	> 10000							C=C(C(=O)N1CC[C@H](N2CCC(c3cc4c(c(C)n3)OCc3c(-c5cnn(C)c5)ccnc3N4)CC2)C1)n1cccn1 (single isomer, unassigned) [Compound 372]
457	1.36	3.18e-05	23.3	> 10000							CC#CC(=O)N1CCC(N2CC(c3cc4c(c(C5CC5)n3)O[C@@H](C)c3c(N5CCOCC5)ccnc3N4)C2)CC1 (single isomer, unassigned) [Compound 374]
1290	2.12	2.58e-05	12.2	> 10000							C=CC(=O)N1CCC(N2CC(c3cc4c(c(C5CC5)n3)O[C@@H](C)c3c(N5CCOCC5)ccnc3N4)C2)CC1 (single isomer, unassigned) [Compound 375]
35.5	0.0467	9.41e-05	2020	5010							CC#CC(=O)N1CCC(N2CC(c3cc4c(c(C5CC5)n3)O[C@H](C)c3c(N5CCOCC5)ccnc3N4)C2)CC1 (single isomer, unassigned) [Compound 376]
50.1	0.0468	2.2e-05	469	5750							C=CC(=O)N1CCC(N2CC(c3cc4c(c(C5CC5)n3)O[C@H](C)c3c(N5CCOCC5)ccnc3N4)C2)CC1 (single isomer, unassigned) [Compound 377]
1620	0.399	1.64e-05	41.1	> 10000							CC#CC(=O)N1CC(N2CC[C@@H](c3cc4c(c(C)n3)OCc3c(N5CCOCC5)ccnc3N4)C2)C1 (single isomer, unassigned) [Compound 386]
977	0.451	2.21e-05	49.1	> 10000							CC#CC(=O)N1CC(N2CC[C@H](c3cc4c(c(C)n3)OCc3c(N5CCOCC5)ccnc3N4)C2)C1 (single isomer, unassigned) [Compound 387]
~22.9				7240					1270		C=CC(=O)N1CC[C@H](N2CC(c3cc(C)c4c(c3)Nc3nccc(N5CCOCC5)c3[C@@H](C)O4)C2)C1 (single isomer, unassigned) [Compound 388]
129	0.0655	5.4e-05	823	~10000							C=CC(=O)N1CC(N2CC[C@@H](c3cc4c(c(C)n3)O[C@@H](C)c3c(N5CCOCC5)ccnc3N4)C2)C1 (single isomer, unassigned) [Compound 392]
30.2				6170					1630		C=CC(=O)N1CC[C@@H](N2CC(c3cc(C)c4c(c3)Nc3nccc(N5CCOCC5)c3[C@@H](C)O4)C2)C1 (single isomer, unassigned) [Compound 398]
	0.0823				7.1	0.000126	1530.27	5.15			C=CC(=O)N1CC[C@@H](N2CC(c3cc4c(c(C(F)(F)F)n3)OCc3c(N5CCOCC5)ccnc3N4)C2)C1 (single isomer, unassigned) [Compound 402]
					7.13			5.09		1280.59	C=CC(=O)N1CC[C@H](N2CC(c3cc4c(c(C(F)(F)F)n3)OCc3c(N5CCOCC5)ccnc3N4)C2)C1 (single isomer, unassigned) [Compound 404]
~9.77	0.495	0.000181	366	1820							C=CC(=O)N1CCC(N2CCC(c3cc4c(c(C)n3)O[C@H](C)c3c(N5CCOCC5)ccnc3N4)CC2)CC1 (single isomer, unassigned) [Compound 406]
288	3.4	0.000106	31.3	> 10000							C=CC(=O)N1CCC(N2CCC(c3cc4c(c(C)n3)O[C@@H](C)c3c(N5CCOCC5)ccnc3N4)CC2)CC1 (single isomer, unassigned) [Compound 411]
75.9	0.0374	4.94e-05	1320	> 10000							C=CC(=O)N1CC[C@@H](N2CC(c3cc4c(c(C)n3)O[C@H](C)c3c(C5CCOCC5)ccnc3N4)C2)C1 (single isomer, unassigned) [Compound 413]
1820	2.22	7.43e-05	33.5	> 10000							C=CC(=O)N1CC(N2CCC(c3cc4c(c(C)n3)O[C@@H](C)c3c(C5CCOCC5)ccnc3N4)CC2)C1 (single isomer, unassigned) [Compound 415]
< 9.77				1860					1750		CC#CC(=O)N1CCC(N2CCC(c3cc4c(c(C)n3)O[C@H](C)c3c(N5CCOCC5)ccnc3N4)CC2)CC1 (single isomer, unassigned) [Compound 416]
257	0.0692	2.87e-05	415	8710							CC#CC(=O)N1CC[C@H](N2CC(c3cc4c(c(C5CC5)n3)OCc3c(N5CCOCC5)ccnc3N4)C2)C1 (single isomer, unassigned) [Compound 418]
	0.064	7.59e-05			7.02		1185.66	5			C=CC(=O)N1CC[C@H](N2CC(c3cc4c(c(C5CC5)n3)OCc3c(N5CCOCC5)ccnc3N4)C2)C1 (single isomer, unassigned) [Compound 421]

— patent publication US20240254138A1, “TRICYCLIC PYRIMIDINES AS CYCLIN-DEPENDENT KINASE 7 (CDK7) INHIBITORS” (JANSSEN PHARMACEUTICA NV, priority 2021, published 2024)
